Measured values: ChEMBL document CHEMBL3994565 (Medchemcomm, 2016)

What was measured:
[1] = Cytotoxicity against MDCK cells assessed as cell viability at 100 uM after 40 hrs by CellTiter-Glo assay relative to control; assay type: cell-based, Canis lupus familiaris; details: dog, read-out: Activity
[2] = Antiviral activity against Influenza A virus (A/WSN/33(H1N1)) infected in MDCK cells assessed as inhibition of virus-induced cytopathic effect at 100 uM incubated for 40 hrs by CellTiter-Glo assay; assay type: functional, Influenza A virus (A/WSN/1933(H1N1))
[3] = Antiviral activity against Influenza A virus (A/WSN/33(H1N1)) infected in MDCK cells assessed as inhibition of virus-induced cytopathic effect incubated for 40 hrs by CellTiter-Glo assay; assay type: functional, cell-based, Influenza A virus (A/WSN/1933(H1N1))
[4] = Selectivity index, ratio of CC50 against uninfected MDCK cells to IC50 against Influenza A virus (A/WSN/33(H1N1)) infected MDCK cells; assay type: toxicity, cell-based; details: dog; read-out: Ratio CC50/IC50
[5] = Cytotoxicity against MDCK cells assessed as decrease in cell viability after 40 hrs by CellTiter-Glo assay; assay type: cell-based, Canis lupus familiaris; details: dog

Structure (SMILES): COC(=O)[C@@]1(N=[N+]=[N-])C[C@H](OC(C)=O)[C@@H](NC(C)=O)[C@H]([C@H](OC(C)=O)[C@@H](COC(C)=O)OC(C)=O)O1
- viability at 40 h, 100 µM [1]: 100%
- inhibition at 100 µM [2]: 1%

Structure (SMILES): CC1(C)CC[C@]2(C(=O)O)[C@H](O)C[C@]3(C)C(=CC[C@@H]4[C@@]5(C)CC[C@H](O)C(C)(C)[C@@H]5CC[C@]43C)[C@@H]2C1
- viability at 40 h, 100 µM [1]: 40.1%

Structure (SMILES): C[C@H]1[C@H](C)CC[C@]2(C(=O)O)CC[C@]3(C)C(=CC[C@@H]4[C@@]5(C)CC[C@H](O)C(C)(C)[C@@H]5CC[C@]43C)[C@H]12 [URSOLIC ACID]
- viability at 40 h, 100 µM [1]: 0.4%

Structure (SMILES): COC(=O)[C@@]1(OCCOC(=O)[C@]23CCC(C)(C)C[C@@H]2C2=CC[C@@H]4[C@@]5(C)CC[C@H](O)C(C)(C)[C@@H]5CC[C@@]4(C)[C@]2(C)C[C@H]3O)C[C@H](O)[C@@H](NC(C)=O)[C@H]([C@H](O)[C@H](O)CO)O1
- viability at 40 h, 100 µM [1]: 99.8%
- inhibition at 100 µM [2]: -11.8%

Structure (SMILES): COC(=O)[C@@]1(OCCOC(=O)[C@]23CC[C@@H](C)[C@H](C)[C@@H]2C2=CC[C@@H]4[C@@]5(C)CC[C@H](O)C(C)(C)[C@@H]5CC[C@@]4(C)[C@]2(C)CC3)C[C@H](OC(C)=O)[C@@H](NC(C)=O)[C@H]([C@H](OC(C)=O)[C@@H](COC(C)=O)OC(C)=O)O1
- viability at 40 h, 100 µM [1]: 0.2%

Structure (SMILES): COC(=O)[C@@]1(OCCN=[N+]=[N-])C[C@H](OC(C)=O)[C@@H](NC(C)=O)[C@H]([C@H](OC(C)=O)[C@@H](COC(C)=O)OC(C)=O)O1
- viability at 40 h, 100 µM [1]: 100%
- inhibition at 100 µM [2]: 4.3%

Structure (SMILES): COC(=O)[C@@]1(OCCn2cc(CNC(=O)[C@]34CCC(C)(C)C[C@@H]3C3=CC[C@@H]5[C@@]6(C)CC[C@H](O)C(C)(C)[C@@H]6CC[C@@]5(C)[C@]3(C)CC4)nn2)C[C@H](OC(C)=O)[C@@H](NC(C)=O)[C@H]([C@H](OC(C)=O)[C@@H](COC(C)=O)OC(C)=O)O1
- IC50 [3]: 95.2 µM
- selectivity ratio [4]: > 5.2
- CC50 at 40 h [5]: > 500 µM
- viability at 40 h, 100 µM [1]: 97.1%
- inhibition at 100 µM [2]: 57.8%

Structure (SMILES): COC(=O)[C@@]1(n2cc(CNC(=O)[C@]34CCC(C)(C)C[C@@H]3C3=CC[C@@H]5[C@@]6(C)CC[C@H](O)C(C)(C)[C@@H]6CC[C@@]5(C)[C@]3(C)CC4)nn2)C[C@H](O)[C@@H](NC(C)=O)[C@H]([C@H](O)[C@H](O)CO)O1
- viability at 40 h, 100 µM [1]: 106%
- inhibition at 100 µM [2]: -4.6%

Structure (SMILES): COC(=O)[C@@]1(OCCn2cc(CNC(=O)[C@]34CC[C@@H](C)[C@H](C)[C@@H]3C3=CC[C@@H]5[C@@]6(C)CC[C@H](O)C(C)(C)[C@@H]6CC[C@@]5(C)[C@]3(C)CC4)nn2)C[C@H](OC(C)=O)[C@@H](NC(C)=O)[C@H]([C@H](OC(C)=O)[C@@H](COC(C)=O)OC(C)=O)O1
- viability at 40 h, 100 µM [1]: 3.3%

Structure (SMILES): C=C(C)[C@@H]1CC[C@]2(C(=O)NCc3cn([C@]4(C(=O)OC)C[C@H](OC(C)=O)[C@@H](NC(C)=O)[C@H]([C@H](OC(C)=O)[C@@H](COC(C)=O)OC(C)=O)O4)nn3)CC[C@]3(C)[C@H](CC[C@@H]4[C@@]5(C)CC[C@H](O)C(C)(C)[C@@H]5CC[C@]43C)[C@@H]12
- viability at 40 h, 100 µM [1]: 100%
- inhibition at 100 µM [2]: 16%

Structure (SMILES): C=C(C)[C@@H]1CC[C@]2(C(=O)NCc3cn(CCO[C@]4(C(=O)OC)C[C@H](OC(C)=O)[C@@H](NC(C)=O)[C@H]([C@H](OC(C)=O)[C@@H](COC(C)=O)OC(C)=O)O4)nn3)CC[C@]3(C)[C@H](CC[C@@H]4[C@@]5(C)CC[C@H](O)C(C)(C)[C@@H]5CC[C@]43C)[C@@H]12
- IC50 [3]: 78.3 µM
- selectivity ratio [4]: > 6.3
- CC50 at 40 h [5]: > 500 µM
- viability at 40 h, 100 µM [1]: 105%
- inhibition at 100 µM [2]: 67.6%

Structure (SMILES): C=C(C)[C@@H]1CC[C@]2(C(=O)NCc3cn(CCO[C@]4(C(=O)OC)C[C@H](O)[C@@H](NC(C)=O)[C@H]([C@H](O)[C@H](O)CO)O4)nn3)CC[C@]3(C)[C@H](CC[C@@H]4[C@@]5(C)CC[C@H](O)C(C)(C)[C@@H]5CC[C@]43C)[C@@H]12
- viability at 40 h, 100 µM [1]: 104%
- inhibition at 100 µM [2]: 12.2%

Structure (SMILES): COC(=O)[C@@]1(n2cc(CNC(=O)[C@]34CCC(C)(C)C[C@@H]3C3=CC[C@@H]5[C@@]6(C)CC[C@H](O)C(C)(C)[C@@H]6CC[C@@]5(C)[C@]3(C)C[C@H]4O)nn2)C[C@H](O)[C@@H](NC(C)=O)[C@H]([C@H](O)[C@H](O)CO)O1
- viability at 40 h, 100 µM [1]: 104%
- inhibition at 100 µM [2]: -3.6%

Structure (SMILES): COC(=O)[C@@]1(OCCOC(=O)[C@]23CC[C@@H](C)[C@H](C)[C@@H]2C2=CC[C@@H]4[C@@]5(C)CC[C@H](O)C(C)(C)[C@@H]5CC[C@@]4(C)[C@]2(C)CC3)C[C@H](O)[C@@H](NC(C)=O)[C@H]([C@H](O)[C@H](O)CO)O1
- viability at 40 h, 100 µM [1]: 0.1%

Structure (SMILES): COC(=O)[C@@]1(n2cc(CNC(=O)[C@]34CCC(C)(C)C[C@@H]3C3=CC[C@@H]5[C@@]6(C)CC[C@H](O)C(C)(C)[C@@H]6CC[C@@]5(C)[C@]3(C)CC4)nn2)C[C@H](OC(C)=O)[C@@H](NC(C)=O)[C@H]([C@H](OC(C)=O)[C@@H](COC(C)=O)OC(C)=O)O1
- viability at 40 h, 100 µM [1]: 104%
- inhibition at 100 µM [2]: 1.3%

Structure (SMILES): COC(=O)[C@@]1(n2cc(CNC(=O)[C@]34CCC(C)(C)C[C@@H]3C3=CC[C@@H]5[C@@]6(C)CC[C@H](O)C(C)(C)[C@@H]6CC[C@@]5(C)[C@]3(C)C[C@H]4O)nn2)C[C@H](OC(C)=O)[C@@H](NC(C)=O)[C@H]([C@H](OC(C)=O)[C@@H](COC(C)=O)OC(C)=O)O1
- viability at 40 h, 100 µM [1]: 103%
- inhibition at 100 µM [2]: -5.2%

Structure (SMILES): C=C(C)[C@@H]1CC[C@]2(C(=O)NCc3cn([C@]4(C(=O)OC)C[C@H](O)[C@@H](NC(C)=O)[C@H]([C@H](O)[C@H](O)CO)O4)nn3)CC[C@]3(C)[C@H](CC[C@@H]4[C@@]5(C)CC[C@H](O)C(C)(C)[C@@H]5CC[C@]43C)[C@@H]12
- viability at 40 h, 100 µM [1]: 104%
- inhibition at 100 µM [2]: -8.1%

Structure (SMILES): COC(=O)[C@@]1(n2cc(CNC(=O)[C@]34CC[C@@H](C)[C@H](C)[C@@H]3C3=CC[C@@H]5[C@@]6(C)CC[C@H](O)C(C)(C)[C@@H]6CC[C@@]5(C)[C@]3(C)CC4)nn2)C[C@H](O)[C@@H](NC(C)=O)[C@H]([C@H](O)[C@H](O)CO)O1
- viability at 40 h, 100 µM [1]: 12.2%

Structure (SMILES): COC(=O)[C@@]1(OCCOC(=O)[C@]23CCC(C)(C)C[C@@H]2C2=CC[C@@H]4[C@@]5(C)CC[C@H](O)C(C)(C)[C@@H]5CC[C@@]4(C)[C@]2(C)CC3)C[C@H](OC(C)=O)[C@@H](NC(C)=O)[C@H]([C@H](OC(C)=O)[C@@H](COC(C)=O)OC(C)=O)O1
- viability at 40 h, 100 µM [1]: 90.1%
- inhibition at 100 µM [2]: 18.7%

Structure (SMILES): CC1(C)CC[C@]2(C(=O)O)CC[C@]3(C)C(=CC[C@@H]4[C@@]5(C)CC[C@H](O)C(C)(C)[C@@H]5CC[C@]43C)[C@@H]2C1 [OLEANOLIC_ACID]
- viability at 40 h, 100 µM [1]: 60.9%

Structure (SMILES): COC(=O)[C@@]1(OCCn2cc(CNC(=O)[C@]34CC[C@@H](C)[C@H](C)[C@@H]3C3=CC[C@@H]5[C@@]6(C)CC[C@H](O)C(C)(C)[C@@H]6CC[C@@]5(C)[C@]3(C)CC4)nn2)C[C@H](O)[C@@H](NC(C)=O)[C@H]([C@H](O)[C@H](O)CO)O1
- viability at 40 h, 100 µM [1]: 20.1%

Structure (SMILES): COC(=O)[C@@]1(OCCn2cc(CNC(=O)[C@]34CCC(C)(C)C[C@@H]3C3=CC[C@@H]5[C@@]6(C)CC[C@H](O)C(C)(C)[C@@H]6CC[C@@]5(C)[C@]3(C)C[C@H]4O)nn2)C[C@H](O)[C@@H](NC(C)=O)[C@H]([C@H](O)[C@H](O)CO)O1
- viability at 40 h, 100 µM [1]: 107%
- inhibition at 100 µM [2]: 2.2%

Structure (SMILES): COC(=O)[C@@]1(OCCOC(=O)[C@]23CCC(C)(C)C[C@@H]2C2=CC[C@@H]4[C@@]5(C)CC[C@H](O)C(C)(C)[C@@H]5CC[C@@]4(C)[C@]2(C)CC3)C[C@H](O)[C@@H](NC(C)=O)[C@H]([C@H](O)[C@H](O)CO)O1
- viability at 40 h, 100 µM [1]: 82.4%
- inhibition at 100 µM [2]: 16.4%

Structure (SMILES): COC(=O)[C@@]1(n2cc(CNC(=O)[C@]34CC[C@@H](C)[C@H](C)[C@@H]3C3=CC[C@@H]5[C@@]6(C)CC[C@H](O)C(C)(C)[C@@H]6CC[C@@]5(C)[C@]3(C)CC4)nn2)C[C@H](OC(C)=O)[C@@H](NC(C)=O)[C@H]([C@H](OC(C)=O)[C@@H](COC(C)=O)OC(C)=O)O1
- viability at 40 h, 100 µM [1]: 2.5%

Structure (SMILES): COC(=O)[C@@]1(OCCn2cc(CNC(=O)[C@]34CCC(C)(C)C[C@@H]3C3=CC[C@@H]5[C@@]6(C)CC[C@H](O)C(C)(C)[C@@H]6CC[C@@]5(C)[C@]3(C)C[C@H]4O)nn2)C[C@H](OC(C)=O)[C@@H](NC(C)=O)[C@H]([C@H](OC(C)=O)[C@@H](COC(C)=O)OC(C)=O)O1
- viability at 40 h, 100 µM [1]: 105%
- inhibition at 100 µM [2]: 15.3%

Structure (SMILES): COC(=O)[C@@]1(OCCI)C[C@H](OC(C)=O)[C@@H](NC(C)=O)[C@H]([C@H](OC(C)=O)[C@@H](COC(C)=O)OC(C)=O)O1
- viability at 40 h, 100 µM [1]: 103%
- inhibition at 100 µM [2]: 6.3%

Structure (SMILES): COC(=O)[C@@]1(OCCn2cc(CNC(=O)[C@]34CCC(C)(C)C[C@@H]3C3=CC[C@@H]5[C@@]6(C)CC[C@H](O)C(C)(C)[C@@H]6CC[C@@]5(C)[C@]3(C)CC4)nn2)C[C@H](O)[C@@H](NC(C)=O)[C@H]([C@H](O)[C@H](O)CO)O1
- viability at 40 h, 100 µM [1]: 107%
- inhibition at 100 µM [2]: 6.7%

Structure (SMILES): COC(=O)[C@@]1(OCCOC(=O)[C@]23CCC(C)(C)C[C@@H]2C2=CC[C@@H]4[C@@]5(C)CC[C@H](O)C(C)(C)[C@@H]5CC[C@@]4(C)[C@]2(C)C[C@H]3O)C[C@H](OC(C)=O)[C@@H](NC(C)=O)[C@H]([C@H](OC(C)=O)[C@@H](COC(C)=O)OC(C)=O)O1
- viability at 40 h, 100 µM [1]: 84.5%
- inhibition at 100 µM [2]: 31.2%
